{"source": "paper PMC5315023", "about": "(Nature, 2016)", "system": "MEFs expressing Mfn1 or Mfn2 in any combination", "assay": "Mitochondrial aspect ratio/morphology with adenovirally expressed minipeptides", "type": "cell-based, mouse", "details": "adenoviral expression, MOI of 100, MEFs", "data": [{"sequence": "RQVSTAMAEEIRRLSVLVDDY [Adeno428-448]", "values": [{"measurement": "Effect on mitochondrial fusion / morphology", "value": "did not affect mitochondrial fusion"}]}]}
